Patent publication US8501446B2 (Vertex Pharmaceuticals Incorporated, priority 2004, dated 2013)
pKi: −log10 of the molar value.

Legend:
Format in all cases: biochemical
[1] = biological target: T1, full length Aurora-A (AA 1-403) (Homo sapiens, UniProt O14965); assay: Aurora-A inhibition assay, standard coupled enzyme system; settings: average Ki if more than one value determined
T1 construct: full length Aurora-A (AA 1-403)
T1 sequence (O14965 1-403): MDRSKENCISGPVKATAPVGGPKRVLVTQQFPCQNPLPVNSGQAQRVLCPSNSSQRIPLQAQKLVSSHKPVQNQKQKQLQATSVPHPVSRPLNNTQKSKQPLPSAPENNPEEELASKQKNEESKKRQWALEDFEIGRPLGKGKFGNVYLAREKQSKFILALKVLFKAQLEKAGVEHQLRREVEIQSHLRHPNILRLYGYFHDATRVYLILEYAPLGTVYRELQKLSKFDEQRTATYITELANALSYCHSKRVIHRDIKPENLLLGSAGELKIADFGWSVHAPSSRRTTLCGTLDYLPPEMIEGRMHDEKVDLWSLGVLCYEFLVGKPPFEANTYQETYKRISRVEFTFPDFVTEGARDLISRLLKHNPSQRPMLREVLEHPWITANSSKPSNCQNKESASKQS

[2] = biological target: Aurora-B (Homo sapiens, UniProt Q96GD4); assay: Aurora-B inhibition assay, radioactive assay; settings: average Ki if more than one value determined
Chain of Aurora-B (Q96GD4 whole entry): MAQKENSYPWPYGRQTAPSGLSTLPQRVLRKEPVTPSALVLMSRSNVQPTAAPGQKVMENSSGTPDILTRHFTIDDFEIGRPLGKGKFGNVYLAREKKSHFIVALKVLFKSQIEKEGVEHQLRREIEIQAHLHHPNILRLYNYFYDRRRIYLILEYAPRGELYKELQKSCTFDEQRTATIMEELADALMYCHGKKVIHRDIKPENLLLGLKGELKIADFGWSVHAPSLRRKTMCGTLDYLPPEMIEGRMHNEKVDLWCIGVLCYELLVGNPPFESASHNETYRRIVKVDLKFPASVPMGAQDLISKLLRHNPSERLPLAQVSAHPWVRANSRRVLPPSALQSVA
Method: Compounds were screened for their ability to inhibit JAK3 using a standard radioactive enzyme assay. 1.5 μL/well of a DMSO stock containing serial dilutions of a compound of the present invention (concentrations ranging from 667 μM to 46 nM) was placed in a 96 well polycarbonate plate. 50 μL per well of kinase buffer (100 mM HEPES (pH 7.4), 10 mM MgCl2, 25 mM NaCl, 1 mM DTT, and 0.01% bovine serum albumin (BSA)) containing 2 μM poly(Glu)4Tyr and 10 μM ATP was also added to the plate. To initiate the reaction, 50 μL kinase buffer containing 2 nM JAK3 enzyme was added. Final ATP concentration was 5 μM [γ-^33P] ATP (200 μCi ^33P ATP/μmol ATP (Perkin Elmer, Cambridge, Mass.). After 20 minutes at room temperature (25° C.), the reaction was stopped by adding 50 μL 20% trichloroacetic acid (TCA)/0.4 mM ATP to each well. The entire content of each well was then transferred to a 96 well glass fiber filter plate using a TomTek Cell Harvester. After washing, 60 μL scintillation fluid was added and ^33P incorporation detected using a Perkin Elmer TopCount. After removing mean background values for all of the data points the data was fit using Prism software to obtain a Ki(app). Inhibition of JAK2 was measured as above except that final poly(Glu)4Tyr concentration was 15 μM and final ATP concentration was 12 μM.
Some compounds were screened for their ability to inhibit ROCK using a standard radioactive enzyme assay. Assays were carried out in a solution containing 100 mM HEPES (pH 7.5), 10 mM MgCl2, 25 mM NaCl, 2 mM DTT, and 1.5% DMSO. Final substrate concentrations in the assay were 13 μM [γ-^33P] ATP (25 mCi ^33P ATP/mmol ATP, Perkin Elmer, Cambridge, Mass./Sigma Chemicals, St Louis, Mo.) and 27 μM Myelin Basic Protein (MBP). Final enzyme concentration in the assay was 5 nM ROCK. Assays were carried out at room temperature. 1.5 μl of DMSO stock containing serial dilutions of the compound of the present invention (concentrations ranging from 10 μM to 2.6 nM) was placed in a 96 well plate. 50 μl of Solution 1 (100 mM HEPES (pH 7.5), 10 mM MgCl2, […]) was added to the plate. The reaction was initiated by addition of 50 μl of Solution 2 (100 mM HEPES (pH 7.5), 10 mM MgCl2, 4 mM DTT, […] and 10 nM ROCK). After 2 hours the reaction was quenched with 50 μL of 30% trichloroacetic acid (TCA, Fisher) containing 9 mM ATP. Transfer of 140 μL of the quenched reaction to a glass fiber filter plate (Corning, Cat. No. 3511) was followed by washing 3 times with 5% TCA. 50 μL of Optima Gold scintillation fluid (Perkin Elmer) was added and the plates were counted on a Top Count (Perkin Elmer). After removing mean background values for all of the data points the data was fit using Prism software to obtain a Ki(app).
An assay stock buffer solution was prepared containing all of the reagents listed above with the exception of ATP and the test compound of interest. The assay stock buffer solution (60 μl) was incubated in a 96 well plate with 2 μl of the test compound of interest at final concentrations spanning 0.002 μM to 30 μM at 30° C. for 10 min. Typically, a 12 point titration was conducted by preparing serial dilutions (from 1 mM compound stocks) with DMSO of the test compounds in daughter plates. The reaction was initiated by the addition of 5 μl of ATP (final concentration 200 μM). Rates of reaction were obtained using a Molecular Devices Spectramax plate reader (Sunnyvale, Calif.) over 10 min at 30° C. The Ki values were determined from the rate data as a function of inhibitor concentration using computerized nonlinear regression (Prism 3.0, Graphpad Software, San Diego, Calif.). Aurora-C activity was screened in a similar manner using Aurora-C protein. Aurora-B activity was screened using a radioactive assay, such as described in Examples 1 and 2, but using Aurora-B protein.

[3] = biological target: T2, ROCK I (AA 6-553) (Homo sapiens, UniProt Q13464); assay: ROCK inhibition assay, standard coupled enzyme system ("Enzyme"); settings: enzyme-linked assay
T2 construct: ROCK I (AA 6-553)
T2 sequence (Q13464 6-553, species assumed): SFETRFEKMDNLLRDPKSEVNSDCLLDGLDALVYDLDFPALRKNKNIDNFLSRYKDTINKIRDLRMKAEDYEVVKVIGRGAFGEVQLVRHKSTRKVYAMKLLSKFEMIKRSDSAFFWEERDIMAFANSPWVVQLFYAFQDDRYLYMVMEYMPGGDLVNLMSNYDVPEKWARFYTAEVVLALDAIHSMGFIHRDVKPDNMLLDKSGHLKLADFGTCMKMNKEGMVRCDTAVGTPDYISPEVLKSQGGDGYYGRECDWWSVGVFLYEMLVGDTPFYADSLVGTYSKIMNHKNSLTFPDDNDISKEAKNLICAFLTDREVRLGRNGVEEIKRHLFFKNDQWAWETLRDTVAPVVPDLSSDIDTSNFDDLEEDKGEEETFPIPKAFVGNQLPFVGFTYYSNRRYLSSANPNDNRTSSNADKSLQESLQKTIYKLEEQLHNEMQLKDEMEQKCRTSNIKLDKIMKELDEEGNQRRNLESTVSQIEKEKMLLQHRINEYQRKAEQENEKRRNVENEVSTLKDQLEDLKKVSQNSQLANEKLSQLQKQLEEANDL
Method in brief: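 ROCK I (AA 6-553) at 45 nM and 30 °C with 45 μM ATP and 200 μM peptide, in 100 mM HEPES pH 7.5, 10 mM MgCl2, 25 mM NaCl, 2 mM DTT, 1.5% DMSO. ADP output read by a PK/LDH coupled system: 2.5 mM PEP, 350 μM NADH, 30 μg/ml PK, 10 μg/ml LDH.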

pKi [1] | pKi [2] | pKi [3] | Compound
> 6.30 | 5.30 to 6.30 | 5.30 to 6.30 | Clc1cnc2[nH]cc(-c3cccc(NC4CCCCCC4)n3)c2c1 [Compound 291]
> 6.30 | > 6.30 | > 6.30 | Cc1ccccc1Nc1nc(-c2c[nH]c3ncc(Cl)cc23)ncc1F [Compound 299]
> 6.30 | > 6.30 | > 6.30 | Cc1cccc(C)c1Nc1nc(-c2c[nH]c3ncc(Cl)cc23)ncc1F [Compound 300]
> 6.30 | > 6.30 | 5.30 to 6.30 | Fc1cnc(-c2c[nH]c3ncc(Cl)cc23)nc1N[C@H]1CCc2ccccc21 [Compound 302]
> 6.30 | > 6.30 | 5.30 to 6.30 | COc1cccc([C@H](C)Nc2nc(-c3c[nH]c4ncc(Cl)cc34)ncc2F)c1 [Compound 305]
> 6.30 | > 6.30 | 5.30 to 6.30 | C[C@@H](Nc1nc(-c2c[nH]c3ncc(Cl)cc23)ncc1F)c1ccc([N+](=O)[O-])cc1 [Compound 310]
> 6.30 | 5.30 to 6.30 | 5.30 to 6.30 | CC(C)Nc1nc(-c2c[nH]c3ncc(Cl)cc23)ncc1F [Compound 315]
> 6.30 | > 6.30 | 5.30 to 6.30 | Cc1cnc(-c2c[nH]c3ncc(Cl)cc23)nc1N[C@@H](C)c1ccc(F)cc1 [Compound 322]
> 6.30 | > 6.30 | 5.30 to 6.30 | Fc1cnc(-c2c[nH]c3ncc(Cl)cc23)nc1NC1CCCc2ccccc21 (centres unmarked) [Compound 330]
> 6.30 | > 6.30 | 5.30 to 6.30 | C[C@H](Nc1nc(-c2c[nH]c3ncc(Cl)cc23)ncc1F)c1cccc(OCCO)c1 [Compound 341]
> 6.30 | > 6.30 | 5.30 to 6.30 | CC[C@H](Nc1nc(-c2c[nH]c3ncc(Cl)cc23)ncc1F)c1ccccc1 [Compound 354]
> 6.30 | > 6.30 | 5.30 to 6.30 | CNC(=O)[C@@H](Nc1nc(-c2c[nH]c3ncc(Cl)cc23)ncc1F)C(C)(C)C [Compound 385]
> 6.30 | > 6.30 | 5.30 to 6.30 | CNC(=O)[C@H](COC)Nc1nc(-c2c[nH]c3ncc(Cl)cc23)ncc1F [Compound 388]
> 6.30 | > 6.30 | 5.30 to 6.30 | C[C@H](Nc1nc(-c2c[nH]c3ncc(Cl)cc23)c(F)cc1C(=O)O)c1ccc(F)cc1 [Compound 397]
> 6.30 | 5.30 to 6.30 | 5.30 to 6.30 | C[C@H](Nc1nc(-c2c[nH]c3ncc(Cl)cc23)nc2ccccc12)c1ccc(F)cc1 [Compound 404]
> 6.30 | 5.30 to 6.30 | 5.30 to 6.30 | C[C@H](Nc1nc(-c2c[nH]c3ncc(Cl)cc23)ncc1F)C(=O)NC1CCCCC1 [Compound 406]
> 6.30 | > 6.30 | 5.30 to 6.30 | C[C@H](Nc1ccnc(-c2c[nH]c3ncc(Cl)cc23)n1)C(=O)NCC(F)(F)F [Compound 413]
5.30 to 6.30 | 5.30 to 6.30 | 5.30 to 6.30 | C[C@H](Nc1cc(N2CCN(C)CC2)nc(-c2c[nH]c3ncc(Cl)cc23)n1)C(=O)NCC(F)(F)F [Compound 414]
5.30 to 6.30 | 5.30 to 6.30 | – | C[C@H](Nc1nc(-c2c[nH]c3ncc(Cl)cc23)ncc1F)C(=O)NCCc1nc2ccccc2[nH]1 [Compound 459]
5.30 to 6.30 | 5.30 to 6.30 | – | C[C@H](Nc1nc(-c2c[nH]c3ncc(Cl)cc23)ncc1F)C(=O)NCCCN1CCCC1=O [Compound 460]
5.30 to 6.30 | 5.30 to 6.30 | – | C[C@H](Nc1nc(-c2c[nH]c3ncc(Cl)cc23)ncc1F)C(=O)NCCSCc1c(Cl)cccc1Cl [Compound 462]
> 6.30 | 5.30 to 6.30 | – | CCCC[C@H](C)NC(=O)[C@H](C)Nc1nc(-c2c[nH]c3ncc(Cl)cc23)ncc1F [Compound 463]

Compound | pKi [1] | pKi [2] | pKi [3]
C[C@H](Nc1nc(-c2c[nH]c3ncc(Cl)cc23)ncc1F)c1cccc(OC(=O)NO)c1 [Compound 375] | > 6.30 | > 6.30 | 5.30 to 6.30
